PMC10708259 (Molecules, 2023)
Structures can show the parent of a compound that is named as a salt.

What was measured:
[1] = molecular target: T1, human κ-opioid receptor (OPRK1) (Homo sapiens, UniProt P41145); experiment: Forskolin-induced cAMP accumulation assay, KOR agonist mode; conditions: for Emax: CHO-K1, read-out: KOR Agonist %Emax ± SEM
[2] = molecular target: T1, human κ-opioid receptor (OPRK1); experiment: Forskolin-induced cAMP accumulation assay, KOR antagonist mode; conditions: for KOR Antagonist %Imax ± SEM: versus EC90 of U50488H, Imax normalized to nor-BNI
[3] = molecular target: T2, human δ-opioid receptor (OPRD1) (Homo sapiens, UniProt P41143); experiment: Forskolin-induced cAMP accumulation assay, DOR agonist mode; conditions: for Emax: CHO-K1, read-out: DOR Agonist %Emax ± SEM
T2 sequence (P41143 whole entry): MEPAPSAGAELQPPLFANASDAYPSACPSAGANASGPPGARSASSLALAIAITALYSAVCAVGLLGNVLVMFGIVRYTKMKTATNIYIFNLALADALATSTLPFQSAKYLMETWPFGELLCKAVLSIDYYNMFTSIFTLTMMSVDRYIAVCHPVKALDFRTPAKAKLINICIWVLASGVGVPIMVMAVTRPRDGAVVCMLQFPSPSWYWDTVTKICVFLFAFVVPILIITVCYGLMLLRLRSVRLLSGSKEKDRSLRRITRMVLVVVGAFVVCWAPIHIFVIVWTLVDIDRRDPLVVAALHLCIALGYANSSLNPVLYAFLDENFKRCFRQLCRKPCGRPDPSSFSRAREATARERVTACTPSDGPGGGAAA

[4] = molecular target: T3, human μ-opioid receptor (OPRM1) (Homo sapiens, UniProt P35372); experiment: cell-based; format: cell-based; conditions: for EC50: MOR Agonist EC50 ± SEM; for Emax: read-out: MOR Agonist %Emax ± SEM
T3 construct: host or cells: cAMP Hunter CHO-K1
T3 sequence (P35372 whole entry): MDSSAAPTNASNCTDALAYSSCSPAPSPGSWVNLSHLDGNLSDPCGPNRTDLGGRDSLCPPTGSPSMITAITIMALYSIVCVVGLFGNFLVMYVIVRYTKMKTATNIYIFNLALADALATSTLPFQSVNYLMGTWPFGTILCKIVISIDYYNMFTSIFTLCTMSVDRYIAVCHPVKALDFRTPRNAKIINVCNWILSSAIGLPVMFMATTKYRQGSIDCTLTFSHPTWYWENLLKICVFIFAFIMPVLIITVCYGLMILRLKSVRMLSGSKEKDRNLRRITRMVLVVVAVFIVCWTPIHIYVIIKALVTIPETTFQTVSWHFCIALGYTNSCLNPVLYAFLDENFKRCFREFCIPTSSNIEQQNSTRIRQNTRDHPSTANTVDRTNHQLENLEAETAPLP

[5] = molecular target: T2, human δ-opioid receptor (OPRD1); experiment: Forskolin-induced cAMP accumulation assay, DOR antagonist mode

T1 sequence (P41145 whole entry): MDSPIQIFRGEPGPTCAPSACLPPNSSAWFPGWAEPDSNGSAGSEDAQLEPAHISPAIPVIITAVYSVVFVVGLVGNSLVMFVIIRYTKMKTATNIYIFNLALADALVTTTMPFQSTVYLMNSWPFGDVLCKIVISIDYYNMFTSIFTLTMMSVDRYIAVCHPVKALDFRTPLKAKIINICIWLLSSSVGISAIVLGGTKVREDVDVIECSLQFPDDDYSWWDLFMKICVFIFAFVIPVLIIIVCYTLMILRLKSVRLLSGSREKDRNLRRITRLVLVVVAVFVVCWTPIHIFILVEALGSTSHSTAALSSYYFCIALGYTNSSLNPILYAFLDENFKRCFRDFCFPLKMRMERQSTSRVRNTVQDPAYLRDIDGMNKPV

Structure (SMILES)	EC50 [1] [nM]	IC50 [2] [nM]	KOR Antagonist %Imax ± SEM [2] [%]	EC50 [3] [nM]	Emax [3] [%]	EC50 [4] [nM]	Emax [4] [%]	IC50 [5] [nM]	Emax [1] [%]	MOR agonist potency / efficacy in words [4]	melting point
CC1C2Cc3ccc(O)cc3C1(C)CCN2CCc1cccc(F)c1 [Compound 7, (1R,5R,9R)-6,11-Dimethyl-3-(3-fluorophenethyl)-1,2,3,4,5,6-hexahydro-2,6-methanobenzo[d]azocin-8-ol]	> 10000	274 ± 83	87 ± 2	11 ± 4	86	0.6	100	–	–	–	–
CC1C2Cc3ccc(O)cc3C1(C)CCN2CCc1cccc(Cl)c1 [Compound 16, (1R,5R,9R)-6,11-Dimethyl-3-(3-chlorophenethyl)-1,2,3,4,5,6-hexahydro-2,6-methanobenzo[d]azocin-8-ol]	> 10000	111 ± 43	108 ± 10	93 ± 25	64	13	95	–	–	–	–
C[C@H]1[C@H]2Cc3ccc(O)cc3[C@]1(C)CCN2CCC1CCN(C)CC1 [Compound 28, (1R,5R,9R)-6,11-Dimethyl-3-(2-(1-methylpiperidin-4-yl)ethyl)-1,2,3,4,5,6-hexahydro-2,6-methanobenzo[d]azocin-8-ol]	0.05 ± 0.02	> 10000	–	> 10000	–	> 10000	–	> 10000	15	little or no potency	–
CC1c2ccc(O)cc2[C@]2(C)CCN(CCc3ccccc3)[C@H]1[C@@H]2C (single isomer, unassigned; (-)) [(−)-39]	20.7 ± 6.1	731 ± 362	57 ± 5	12.6 ± 3.9	91	1.2	102	–	38	–	–
CC1C2Cc3ccc(O)cc3C1(C)CCN2CCc1c(Cl)cccc1Cl [Compound 22, (1R,5R,9R)-6,11-Dimethyl-3-(2,6-dichlorophenethyl)-1,2,3,4,5,6-hexahydro-2,6-methanobenzo[d]azocin-8-ol]	> 10000	65 ± 24	87 ± 7	59 ± 25	78	4	99	–	–	–	–
C[C@H]1[C@H]2Cc3ccc(O)cc3[C@]1(C)CCN2CCc1c[nH]c2ccccc12 [Compound 26, (1R,5R,9R)-3-(2-(1H-Indol-3-yl)ethyl)-6,11-dimethyl-1,2,3,4,5,6-hexahydro-2,6-methanobenzo[d]azocin-8-ol]	> 10000	> 10000	–	343 ± 35	91	12	102	–	–	–	–
CC1C2Cc3ccc(O)cc3C1(C)CCN2CCc1ccc([N+](=O)[O-])cc1 (as salt: HCl) [Compound 3, (1R,5R,9R)-6,11-Dimethyl-3-(4-nitrophenethyl)-1,2,3,4,5,6-hexahydro-2,6-methanobenzo[d]azocin-8-ol]	–	–	–	–	–	–	–	–	–	–	273 to 274 °C (dec.)
CC1C2Cc3ccc(O)cc3C1(C)CCN2CCc1ccccc1 [Compound 23, (1R,5R,9R)-6,11-Dimethyl-3-(phenethyl)-1,2,3,4,5,6-hexahydro-2,6-methanobenzo[d]azocin-8-ol]	3.4 ± 0.4	281 ± 94	81 ± 5	4 ± 1	85	0.27	101	–	25	–	–
